Source: publication doi:10.64898/2025.12.05.692609v2, “Early intervention with a PACAP lactoside following repetitive mild traumatic brain injury prevents persistent LHb hyperactivity and motivational deficits in male mice” (bioRxiv, 2025)
Where two headings read alike, the source gives them in different places. Where a SMILES comes first, the peptide text is derived from it. [ ]: non-standard residue; d: D form. The star is where a group is joined. X1 = OC[C@H]1O[C@@H](O[C@H]2[C@H](O)[C@@H](O)[C@H](*)O[C@@H]2CO)[C@H](O)[C@@H](O)[C@H]1O; Nle = CCCC[C@H](N)C(=O)O

Test system: LHb neurons
Type: in vivo, male C57BL/6 mice
[1] = mTBI+early TES2320: 10 mg/kg i.p. within 30 min after each of 5 injuries, cell-attached V=0, ~4 weeks post-injury, n=138 cells/13 mice
[2] = mTBI+late TES2320: single 10 mg/kg i.p. injection one month post-mTBI, cell-attached V=0, n=58 cells/5 mice

SMILES: CCCC[C@H](NC(=O)[C@H](CCC(N)=O)NC(=O)[C@H](CCCCN)NC(=O)[C@H](CCCNC(=N)N)NC(=O)[C@H](Cc1ccc(O)cc1)NC(=O)[C@H](CCCNC(=N)N)NC(=O)[C@H](CO)NC(=O)[C@H](Cc1ccc(O)cc1)NC(=O)[C@H](CO)NC(=O)[C@H](CC(=O)O)NC(=O)[C@@H](NC(=O)[C@H](Cc1ccccc1)NC(=O)[C@@H](NC(=O)CNC(=O)[C@H](CC(=O)O)NC(=O)[C@H](CO)NC(=O)[C@@H](N)Cc1c[nH]cn1)[C@@H](C)CC)[C@@H](C)O)C(=O)N[C@@H](C)C(=O)N[C@H](C(=O)N[C@@H](CCCCN)C(=O)N[C@@H](CCCCN)C(=O)N[C@@H](Cc1ccc(O)cc1)C(=O)N[C@@H](CC(C)C)C(=O)N[C@@H](CO[C@@H]1O[C@H](CO)[C@@H](O[C@@H]2O[C@H](CO)[C@H](O)[C@H](O)[C@H]2O)[C@H](O)[C@H]1O)C(N)=O)C(C)C [TES2320] (H-HSDGIFTDSYSRYRKQ[Nle]AVKKYLS(X1)-NH2; N-terminus assumed)
- effect on mTBI-induced spontaneous LHb tonic hyperactivity (early intervention, 10 mg/kg i.p. x5, vs mTBI+vehicle p<0.01, Chi squared test): prevented
- effect on mTBI-induced spontaneous LHb tonic hyperactivity (late intervention, single 10 mg/kg i.p. one month post-mTBI, vs mTBI+vehicle p<0.05, Chi squared test): reversed
- LHb neurons bursting, spontaneous activity [1]: 4%
- LHb neurons silent, spontaneous activity [1]: 50%
- LHb neurons tonic, spontaneous activity [1]: 46%
- LHb neurons bursting, spontaneous activity [2]: 5%
- LHb neurons silent, spontaneous activity [2]: 48%
- LHb neurons tonic, spontaneous activity [2]: 47%
